Measured values published in article PMC3781147 (PLoS ONE, 2013).

Experiments:
[1] = system: NOP receptors on rat mesenteric microvascular endothelium; assay: Intravital microscopy study A: FITC-N/OFQ binding in mesenteric microcirculation; assay type: in vivo, rat (male Wistar); settings: n=5
heart rate = assay: Heart rate in anesthetised rats (study B); assay type: in vivo, rat (male Wistar)
mesenteric arterioles = assay: Intravital microscopy study B: arteriole diameter; assay type: in vivo, rat (male Wistar); settings: n=6
mean arterial pressure = assay: Mean arterial pressure in anesthetised rats (study B); assay type: in vivo, rat (male Wistar)
[2] = system: post-capillary venules (<40 µm); assay: Intravital microscopy study B: macromolecular leak of FITC-BSA; assay type: in vivo, rat (male Wistar); settings: n=6
[3] = system: rat mesenteric microcirculation; settings: unpublished data within previous studies; cited from earlier work
Text: Despite this, as part unpublished data within previous studies we also observed vasoconstriction with UFP-101 [9]. Compared to larger blood vessels the mesenteric microcirculation as studied here (<40 µm) receives little neural control. Thu ...

mesenteric venules = assay: Intravital microscopy study B: venule diameter; assay type: in vivo, rat (male Wistar)
[4] = system: hypothalamic pituitary adrenal stress response; settings: UFP-101 i.c.v.; cited from earlier work
Text: (§1) Only one study has previously utilised the selective NOP antagonist [Nphe^1, Arg^14,Lys^15]

plasma TNF-α and IL-1β = settings: 0.03 mg kg^-1 UFP-101; cited from earlier work
Text: as §1

[5] = system: cecal ligation and puncture (CLP) model of sepsis; settings: 0.03 mg kg^-1, rats; improved from approximately 30%; cited from earlier work
Text: as §1

[6] = system: leukocyte rolling in post-capillary venules (<40 µm); assay: Intravital microscopy study B: leukocyte rolling; assay type: in vivo, rat (male Wistar); settings: n=6
MAP = settings: UFP-101 i.c.v.; cited from earlier work
Text: (§2) Further studies likewise reported no differences in MAP between NOP^-/- and wild-type mice. However, our findings of tachycardia are in contrast to Burmeister & Kapusta. […] In ...

[7] = system: heart rate, renal sympathetic nerve activity, MAP; settings: 300 pmol UFP-101 into PVN, conscious Sprague-Dawley rats; cited from earlier work
Text: as §2

Compound: CC(C)C[C@H](NC(=O)[C@H](CCCCN)NC(=O)[C@H](CCCNC(=N)N)NC(=O)[C@H](C)NC(=O)[C@H](CO)NC(=O)[C@H](CCCCN)NC(=O)[C@H](CCCNC(=N)N)NC(=O)[C@H](C)NC(=O)CNC(=O)[C@@H](NC(=O)[C@H](Cc1ccccc1)NC(=O)CNC(=O)CNC(=O)[C@@H](N)Cc1ccccc1)[C@@H](C)O)C(=O)N[C@@H](C)C(=O)N[C@@H](CC(N)=O)C(=O)N[C@@H](CCC(N)=O)C(=O)N[C@@H](CCCCNC(=S)Nc1ccc2c(c1)C(=O)OC21c2ccc(O)cc2Oc2cc(O)ccc21)C(N)=O [FITC-N/OFQ, [Lys(FITC)^18]N/OFQ-NH2]
- Binding to mesenteric microvascular endothelium ([1]; 200 nM kg^-1 FITC-N/OFQ into mesenteric artery, control rats): bound to specific sites on the endothelium of arterioles
- Time course of decay of FITC fluorescence with vs without N/OFQ ([1]; gray level over 60 s, 200 nM kg^-1 FITC-N/OFQ with (T-15) and without (T0) 200 nM.kg^-1 N/OFQ): The time courses were significantly different

Compound: [Nphe^1, Arg^14,Lys^15] N/OFQ-NH2 [UFP-101]
- Heart rate, T40 (heart rate; UFP-101 150 nM kg^-1 i.v. alone (no LPS), median (IQR), n=6, control 330 (308 to 330), p=0.04): 375 bpm
- Effect on LPS-induced heart rate increase (heart rate; UFP-101 150 nM kg^-1 i.v. in LPS rats, T40, n=6, p=0.004): not altered by the addition of UFP-101
- Effect on LPS-induced tachycardia (heart rate; UFP-101 i.v., LPS rats): no reversal of the tachycardia
- Arteriole diameter, T40, UFP-101 (mesenteric arterioles; UFP-101 150 nM kg^-1 i.v. alone (no LPS), median (IQR), control 16.2 (10.9 to 17.7), p=0.004, difference also present initially): 7.1 µm
- Effect on MAP (mean arterial pressure; UFP-101 150 nM kg^-1 i.v. alone (no LPS), n=6): no significant effect on MAP
- Effect on LPS-induced hypotension (mean arterial pressure; UFP-101 i.v., LPS rats): no reversal of the tachycardia or mild hypotension induced by LPS
- Macromolecular leak, T40, LPS + UFP-101 ([2]; 150nmol.kg^-1 UFP-101 i.v. in LPS rats, median (IQR), not significantly different from controls (p=0.063)): -34.9%
- Effect on macromolecular leak, no LPS ([2]; UFP-101 150 nmol kg^-1 i.v. alone, p=0.151): no effect
- Vessel constriction [3]: vasoconstriction
- Venule diameter, UFP-101 (mesenteric venules; UFP-101 150 nM kg^-1 i.v. alone (no LPS), T40, median (IQR), n=6, control 19.1 (17.8 to 20.8), p=0.001, difference also present initially): 9.7 µm
- Effect on LPS-induced venule vasodilation (mesenteric venules; UFP-101 150 nM kg^-1 i.v., LPS rats): reduced vasodilation of venules in response to LPS
- HPA stress response to LPS [4]: reduced the hypothalamic pituitary adrenal stress response to LPS
- Plasma TNF-α and IL-1β in CLP (plasma TNF-α and IL-1β): reduced plasma concentrations of TNF-α and IL-1β
- Survival in CLP, UFP-101 [5]: ~65%
- Leukocyte rolling, T40, LPS + UFP-101 ([6]; 150nmol.kg^-1 UFP-101 i.v. in LPS rats, median (IQR), not significantly different from controls (p=0.117)): 0 per min
- Effect on leukocyte rolling, no LPS ([6]; UFP-101 150 nmol kg^-1 i.v. alone, p=0.394): no effect
- Effect on MAP, i.c.v. mice (MAP): no effect on MAP
- Heart rate and renal sympathetic nerve activity [7]: increased heart rate and renal sympathetic nerve activity
- MAP after PVN injection [7]: non-significant increase in MAP

Compound: lipopolysaccharide [LPS]
- Heart rate change with LPS, T40 (heart rate; LPS i.v. -24 h 1 mg kg^-1, -2 h 0.5 mg kg^-1, n=6, p=0.004): significant increase in heart rate
- Arteriole diameter change with LPS (mesenteric arterioles; LPS i.v. -24 h and -2 h, p=0.057): diameter changes in arterioles were not significant
- Mean arterial pressure, T40 (mean arterial pressure; LPS i.v. -24 h 1 mg kg^-1, -2 h 0.5 mg kg^-1, median (interquartile range), n=6, control 105 (95 to 110), p=0.429): 85 mmHg
- Macromolecular leak, T40, LPS ([2]; LPS i.v. -24 h and -2 h, % change in interstitial FITC-BSA fluorescence from baseline, median (IQR), control 5.3 (-5.9 to 11.8), p=0.008): 95.3%
- Venule diameter, T40, LPS (mesenteric venules; LPS i.v. -24 h and -2 h, median (IQR), n=6, control 19.1 (17.8 to 20.8), p=0.002): 29.1 µm
- Leukocyte rolling, T40, LPS ([6]; LPS i.v. -24 h and -2 h, median (IQR), control 3.0 (0.8 to 3.8), p=0.003): 7.0 per min
